Assay results from patent US11214803B2, “Modulators of YAP1 expression” (Ionis Pharmaceuticals, Inc., priority 2019, dated 2022).
Strand notation (5' to 3'): a small letter for the sugar, then the base; units joined by * are phosphorothioate-linked, units joined directly phosphodiester-linked; [ ] holds rarer units or linkages, { } end groups; capitals alone tell only the bases. k = constrained ethyl (cEt); [5mC] = 5-methylcytosine; d = 2'-deoxy (DNA)

Assays:
[1] = Cynomolgus monkey tolerability, body and organ weight measurements (Example 34); format: in vivo; settings: cynomolgus monkeys, 35 mg/kg subcutaneously; for Heart weight / Kidney weight / Liver with gallbladder weight / Spleen weight: necropsy; for Terminal Body Weight: prior to necropsy
Protocol: Cynomolgus monkeys were treated with Ionis modified oligonucleotides selected from studies described in the Examples above. Modified oligonucleotide tolerability was evaluated.
During the study period, the monkeys were observed twice daily for signs of illness or distress. Any animal experiencing more than momentary or slight pain or distress due to the treatment, injury or illness was treated by the veterinary staff with approved analgesics or agents to relieve the pain after consultation with the Study Director. Any animal in poor health or in a possible moribund condition was identified for further monitoring and possible euthanasia. Scheduled euthanasia of the animals was conducted on day 86 approximately 48 hours after the last dose by exsanguination while under deep anesthesia. The protocols described in the Example were approved by the Institutional Animal Care and Use Committee (IACUC).
To evaluate the effect of Ionis oligonucleotides on the overall health of the animals, body and organ weights were measured. Terminal body weight was measured prior to necropsy.

[2] = Cynomolgus monkey tolerability, coagulation (Example 34); format: in vivo; settings: cynomolgus monkeys, 35 mg/kg subcutaneously, day 44
Protocol: To evaluate effect of Ionis modified oligonucleotides on coagulation in cynomolgus monkeys, blood samples of approximately 0.9 mL were collected from each of the available study animals on day 44. The samples were collected in tubes containing 3.2% sodium citrate. Coagulation parameters tested include Activated partial thromboplastin time (APTT), prothrombin time (PT) and Figrinogen (FIB).

[3] = tested on: Yap1 mRNA; experiment: Inhibition of human Yap1 mRNA in epidermoid carcinoma A-431 xenograft tumors (Example 27); format: in vivo; settings: A-431 xenografts in NCr-Foxn1nu mice, 6-8 hours post final dose, relative to PBS
Protocol: An epidermoid carcinoma A-431 xenograft tumor model was used to evaluate activity of modified oligonucleotides targeted to human Yap1. Five million A-431 cells in 30% matrigel were implanted subcutaneously into the flanks of female NCr-Foxn1nu mice (from Taconic) at 4-6 weeks of age. When tumors reached an average volume of 40 mm^3, approximately two weeks post-implantation, groups of four mice each were administered at either 25 mg/kg or 50 mg/kg daily with modified oligonucleotides for […] (5 doses). Tumors were collected 6-8 hours post final dose and tested for Yap1 mRNA knockdown by RT-qPCR. Yap1 mRNA levels were measured as previously described using the Human Yap1 primer-probe set RTS4814. Yap1 mRNA levels were normalized to actin-beta content, as measured by primer probe set RTS5002. Results are presented in the tables below as percent control of the amount of Yap1 mRNA relative to PBS treated animals (% control).

[4] = tested on: Yap1 mRNA; experiment: Dose-dependent inhibition of human Yap1 in A-431 cells (Example 24, 11,000 cells per well, RTS36584, normalized to GAPDH); format: cell-based; settings: free uptake, 48 hours; for Yap1 mRNA, % UTC: RTS36584, normalized to GAPDH; for IC50: linear regression on a log/linear plot
Protocol: Modified oligonucleotides described in the studies above were tested at various doses in A-431 cells. Cultured A-431 cells at a density of 11,000 cells per well were treated using free uptake with modified oligonucleotides diluted to concentrations described in the tables below. After approximately 48 hours, Yap1 mRNA levels were measured as previously described using the Human Yap1 primer-probe set RTS36584. Yap1 mRNA levels were normalized to GAPDH content, as measured by primer probe set RTS104 (forward sequence […], designated herein as SEQ ID NO.: 17; reverse sequence […], designated herein as SEQ ID NO.: 18; probe sequence […], designated herein as SEQ ID NO.: 19). Results are presented in the tables below as percent control of the amount of Yap1 mRNA relative to untreated control cells (% UTC). IC50s were calculated using a linear regression on a log/linear plot of the data in excel.

[5] = tested on: Yap1 mRNA; experiment: Inhibition of human Yap1 mRNA in squamous cell carcinoma CAL27 xenograft tumors (Example 28); format: in vivo; settings: CAL27 xenografts in NCr-Foxn1nu mice, relative to PBS treated
Protocol: A squamous cell carcinoma CAL27 xenograft tumor model was used to evaluate activity of modified oligonucleotides targeted to human Yap1. Five million CAL27 cells in 30% matrigel were implanted subcutaneously into the flanks of female CrTac:NCr-Foxn1nu mice (from Taconic) at 4-6 weeks of age. Groups of four mice each were administered with either 15 mg/kg or 30 mg/kg of modified oligonucleotides daily for five days after tumor size had reached ˜100 mm^3 (about 3 weeks post implantation). Tumors were collected and tested for Yap1 mRNA knockdown by RT-qPCR. Yap1 mRNA levels were measured as previously described using the Human Yap1 primer-probe set RTS4814. Yap1 mRNA levels were normalized to actin-beta content, as measured by primer probe set RTS5002. Results are presented in the tables below as percent control of the amount of Yap1 mRNA relative to PBS treated […].

[6] = Cynomolgus monkey tolerability, kidney and liver function markers (Example 34); settings: cynomolgus monkeys, 35 mg/kg subcutaneously, day 44

With “958499 (ATTAGAGTATGTGGCA; 3-10-3 cEt gapmer, further chemistry not given here) [compound 958499]” the Heart weight [1] was 10 g, the Kidney weight [1] was 15 g and the “Liver with gallbladder weight” value [1] was 68 g. For the same substance, the Spleen weight [1] was 4 g, the “Terminal Body Weight” value [1] was 2894 g and the APTT [2] was 18 s. The FIB [2] was 275 mg/dL, the PT [2] was 9 s and the “Yap1 mRNA in tumors, % control” value ([3]; 25 mpk daily (5 doses)) was 49 % control. The “Yap1 mRNA in tumors, % control” value ([3]; 50 mpk daily (5 doses)) was 29 % control, the “Yap1 mRNA, % UTC” value ([4]; 0.002 μM) was 1 % UTC and the “Yap1 mRNA, % UTC” value ([4]; 0.008 μM) was 3 % UTC. The “Yap1 mRNA, % UTC” value ([4]; 0.04 μM) was 28 % UTC, the “Yap1 mRNA, % UTC” value ([4]; 0.2 μM) was 91 % UTC and the “Yap1 mRNA, % UTC” value ([4]; 1 μM) was 117 % UTC. The IC50 [4] was 30 nM, the “Yap1 mRNA in tumors, % UTC” value ([5]; 15 mg/kg daily for five days) was 68 % UTC and the “Yap1 mRNA in tumors, % UTC” value ([5]; 30 mg/kg daily for five days) was 53 % UTC. For the same substance, the ALB [6] was 4.0 g/dL, the ALP [6] was 1449 IU/L and the ALT [6] was 67 IU/L. It also gave an AST [6] of 73 IU/L, a BUN [6] of 24 mg/dL and a CREA [6] of 0.9 mg/dL. For the same substance, the GGT [6] was 67 IU/L, the GLO [6] was 3.2 g/dL and the GLU [6] was 83 mg/dL. The HDL [6] was 89 mg/dL, the LDL [6] was 46 mg/dL and the TBIL [6] was 0.2 mg/dL. The TG [6] was 41 mg/dL and the TP [6] was 7.2 g/dL.
For “715487 (kA*kT*kT*dA*d[5mC]*dT*dT*d[5mC]*dA*dT*dA*dG*d[5mC]*kT*kT*kA) [compound 715487]”, the “Yap1 mRNA in tumors, % control” value ([3]; 25 mpk daily (5 doses)) was 61 % control and the “Yap1 mRNA in tumors, % control” value ([3]; 50 mpk daily (5 doses)) was 57 % control.
With “1198440 (AAGTGTATGTCAGAAG; cEt, 2'-MOE, 5-methylcytosine, phosphorothioate modifications, further chemistry not given here) [compound 1198440]” the Heart weight [1] was 11 g, the Kidney weight [1] was 15 g and the “Liver with gallbladder weight” value [1] was 65 g. The Spleen weight [1] was 3 g, the “Terminal Body Weight” value [1] was 2919 g and the APTT [2] was 20 s. The FIB [2] was 260 mg/dL, the PT [2] was 10 s and the “Yap1 mRNA in tumors, % control” value ([3]; 25 mpk daily (5 doses)) was 32 % control. The “Yap1 mRNA in tumors, % control” value ([3]; 50 mpk daily (5 doses)) was 21 % control, the “Yap1 mRNA, % UTC” value ([4]; 0.002 μM) was 0 % UTC and the “Yap1 mRNA, % UTC” value ([4]; 0.008 μM) was 1 % UTC. The “Yap1 mRNA, % UTC” value ([4]; 0.04 μM) was 14 % UTC, the “Yap1 mRNA, % UTC” value ([4]; 0.2 μM) was 69 % UTC and the “Yap1 mRNA, % UTC” value ([4]; 1 μM) was 96 % UTC. The IC50 [4] was 20 nM, the “Yap1 mRNA in tumors, % UTC” value ([5]; 15 mg/kg daily for five days) was 67 % UTC and the “Yap1 mRNA in tumors, % UTC” value ([5]; 30 mg/kg daily for five days) was 41 % UTC. The ALB [6] was 4.1 g/dL, the ALP [6] was 1412 IU/L and the ALT [6] was 45 IU/L. For the same substance, the AST [6] was 75 IU/L, the BUN [6] was 26 mg/dL and the CREA [6] was 0.9 mg/dL. It also gave a GGT [6] of 80 IU/L, a GLO [6] of 2.9 g/dL and a GLU [6] of 91 mg/dL. The HDL [6] was 104 mg/dL, the LDL [6] was 54 mg/dL and the TBIL [6] was 0.2 mg/dL. For the same substance, the TG [6] was 30 mg/dL and the TP [6] was 7.0 g/dL.
For “1198439 (AGTGTATGTCAGAAGA; sugar, 5-methylcytosine, phosphorothioate modifications, further chemistry not given here) [compound 1198439]”, the Heart weight [1] was 10 g, the Kidney weight [1] was 15 g and the “Liver with gallbladder weight” value [1] was 67 g. The Spleen weight [1] was 3 g, the “Terminal Body Weight” value [1] was 2959 g and the APTT [2] was 19 s. For the same substance, the FIB [2] was 246 mg/dL, the PT [2] was 10 s and the “Yap1 mRNA in tumors, % control” value ([3]; 25 mpk daily (5 doses)) was 37 % control. The “Yap1 mRNA in tumors, % control” value ([3]; 50 mpk daily (5 doses)) was 19 % control, the “Yap1 mRNA, % UTC” value ([4]; 0.002 μM) was 0 % UTC and the “Yap1 mRNA, % UTC” value ([4]; 0.008 μM) was 1 % UTC. The “Yap1 mRNA, % UTC” value ([4]; 0.04 μM) was 11 % UTC, the “Yap1 mRNA, % UTC” value ([4]; 0.2 μM) was 65 % UTC and the “Yap1 mRNA, % UTC” value ([4]; 1 μM) was 93 % UTC. For the same substance, the IC50 [4] was 20 nM, the “Yap1 mRNA in tumors, % UTC” value ([5]; 15 mg/kg daily for five days) was 66 % UTC and the “Yap1 mRNA in tumors, % UTC” value ([5]; 30 mg/kg daily for five days) was 38 % UTC. For the same substance, the ALB [6] was 4.0 g/dL, the ALP [6] was 1298 IU/L and the ALT [6] was 40 IU/L. It also gave an AST [6] of 65 IU/L, a BUN [6] of 24 mg/dL and a CREA [6] of 0.9 mg/dL. It also gave a GGT [6] of 63 IU/L, a GLO [6] of 2.8 g/dL and a GLU [6] of 115 mg/dL. It also gave an HDL [6] of 82 mg/dL, an LDL [6] of 59 mg/dL and a TBIL [6] of 0.2 mg/dL. The TG [6] was 28 mg/dL and the TP [6] was 6.8 g/dL.
With “1076453 (GTAATATTGCAATCTG; 3-10-3 cEt gapmer, further chemistry not given here) [compound 1076453]” the Heart weight [1] was 11 g, the Kidney weight [1] was 16 g and the “Liver with gallbladder weight” value [1] was 72 g. For the same substance, the Spleen weight [1] was 5 g, the “Terminal Body Weight” value [1] was 2955 g and the APTT [2] was 20 s. The FIB [2] was 234 mg/dL, the PT [2] was 9 s and the “Yap1 mRNA in tumors, % control” value ([3]; 25 mpk daily (5 doses)) was 55 % control. For the same substance, the “Yap1 mRNA in tumors, % control” value ([3]; 50 mpk daily (5 doses)) was 25 % control, the “Yap1 mRNA, % UTC” value ([4]; 0.002 μM) was 0 % UTC and the “Yap1 mRNA, % UTC” value ([4]; 0.008 μM) was 1 % UTC. The “Yap1 mRNA, % UTC” value ([4]; 0.04 μM) was 23 % UTC, the “Yap1 mRNA, % UTC” value ([4]; 0.2 μM) was 74 % UTC and the “Yap1 mRNA, % UTC” value ([4]; 1 μM) was 89 % UTC. The “Yap1 mRNA in tumors, % UTC” value ([5]; 15 mg/kg daily for five days) was 69 % UTC, the “Yap1 mRNA in tumors, % UTC” value ([5]; 30 mg/kg daily for five days) was 46 % UTC and the ALB [6] was 3.9 g/dL. The ALP [6] was 1173 IU/L, the ALT [6] was 53 IU/L and the AST [6] was 76 IU/L. For the same substance, the BUN [6] was 27 mg/dL, the CREA [6] was 0.9 mg/dL and the GGT [6] was 78 IU/L. For the same substance, the GLO [6] was 3.1 g/dL, the GLU [6] was 89 mg/dL and the HDL [6] was 98 mg/dL. For the same substance, the LDL [6] was 66 mg/dL, the TBIL [6] was 0.2 mg/dL and the TG [6] was 29 mg/dL. For the same substance, the TP [6] was 7.0 g/dL.
